According to patent publication US20140303105A1, “Primycin and components thereof for use in the treatment or prevention of infections caused by specific pathogens” (PANNONPHARMA GYÓGYSZERGYÁRTÓ ZRT., priority 2011, published 2014):
Values after ≈ are worked out from the molar mass of the structure shown.

Tests used:
Assay in all cases: Standard microdilution susceptibility test, clinical isolates
Type in all cases: cell-based
[1] = test system: Staphylococcus aureus, methicillin resistant; conditions: 10 clinical isolates; for MIC50 / MIC90: Staphylococcus aureus; for MIC50: read-out: MIC 50%; for MIC90: read-out: MIC 90%
[2] = test system: Streptococcus viridans sp.; conditions: 20 clinical isolates; for MIC50 / MIC90: Streptococcus viridans; for MIC50: read-out: MIC 50%; for MIC90: read-out: MIC 90%
[3] = test system: Streptococcus pneumoniae, penicillin resistant; conditions: for MIC50 / MIC90: Streptococcus pneumoniae; for MIC50: read-out: MIC 50%; for MIC90: read-out: MIC 90%
[4] = test system: Enterococcus sp., decreased vancomycin susceptibility; conditions: 5 clinical isolates
[5] = test system: Coagulase-negative Staphylococus sp., methicillin resistant; conditions: 10 clinical isolates; for MIC50: read-out: MIC 50%; for MIC90: read-out: MIC 90%
[6] = test system: Coagulase-negative Staphylococus sp., methicillin susceptible; conditions: 10 clinical isolates; for MIC50: read-out: MIC 50%; for MIC90: read-out: MIC 90%
[7] = test system: Streptococcus pneumoniae, penicillin susceptible; conditions: for MIC 50% / MIC 90% / MIC Range / Ratio of Sensitive/Total / MIC50 / MIC90: 10 clinical isolates; for MIC50 / MIC90: Streptococcus pneumoniae; for MIC50: read-out: MIC 50%; for MIC90: read-out: MIC 90%; for MIC: single isolate
[8] = test system: Enterococcus sp., vancomycin susceptible; conditions: 20 clinical isolates; for MIC50 / MIC90: Enterococcus; for MIC50: read-out: MIC 50%; for MIC90: read-out: MIC 90%
[9] = test system: Staphylococcus aureus, methicillin susceptible; conditions: 10 clinical isolates; for MIC50 / MIC90: Staphylococcus aureus; for MIC50: read-out: MIC 50%; for MIC90: read-out: MIC 90%

Compound | Ratio of Sensitive/Total [1] | Ratio of Sensitive/Total [2] | Ratio of Sensitive/Total ([3]; 10 clinical isolates) | MIC Range [4] | Ratio of Sensitive/Total [4] | Ratio of Sensitive/Total [5] | MIC Range [6] | Ratio of Sensitive/Total [6] | MIC Range [7] | Ratio of Sensitive/Total [7] | Ratio of Sensitive/Total [8] | MIC Range [9] | Ratio of Sensitive/Total [9] | MIC50 [1] | MIC90 [1] | MIC50 [2] | MIC90 [2] | MIC50 ([3]; 10 clinical isolates) | MIC90 ([3]; 10 clinical isolates) | MIC50 [5] | further results
Gentamicin | 10/10 | 9/20 | 0/10 | 8 to 16 µg/mL | 0/5 | 6/10 | 0.03 to 8 µg/mL | 9/10 | 8 to 16 µg/mL | 0/10 | 1/20 | 0.25 to 0.5 µg/mL | 10/10 | – | – | – | – | – | – | – | MIC 50% [1]: 0.5 µg/mL; MIC 90% [1]: 0.5 µg/mL; MIC Range [1]: 0.25 to 1 µg/mL; MIC 50% [2]: 8 µg/mL; MIC 90% [2]: 16 µg/mL; MIC 50% ([3]; 10 clinical isolates): 16 µg/mL; MIC 90% ([3]; 10 clinical isolates): >16 µg/mL; MIC 50% [5]: 0.125 µg/mL; MIC 90% [5]: >16 µg/mL; MIC 50% [6]: 0.125 µg/mL; MIC 90% [6]: 4 µg/mL; MIC 50% [7]: 16 µg/mL; MIC 90% [7]: 16 µg/mL; MIC 50% [8]: 8 µg/mL; MIC 90% [8]: >16 µg/mL; MIC 50% [9]: 0.5 µg/mL; MIC 90% [9]: 0.5 µg/mL
CC1COc2c(N3CCN(C)CC3)c(F)cc3c(=O)c(C(=O)O)cn1c23 (centres unmarked) [Ofloxacin] | 1/10 | 14/20 | 10/10 | 2 to 8 µg/mL | 2/5 | 0/10 | 0.25 to 1 µg/mL | 10/10 | 1 to 4 µg/mL | 9/10 | 3/20 | 0.5 to 1 µg/mL | 10/10 | 16 µg/mL (≈ 44.3 µM) | > 16 µg/mL | 2 µg/mL (≈ 5.53 µM) | 4 µg/mL (≈ 11.1 µM) | 1 µg/mL (≈ 2.77 µM) | 2 µg/mL (≈ 5.53 µM) | > 16 µg/mL | MIC Range [2]: 1 to 8 µg/mL; MIC Range ([3]; 10 clinical isolates): 1 to 2 µg/mL; MIC90 [5]: > 16 µg/mL; MIC50 [6]: 1 µg/mL (≈ 2.77 µM); MIC90 [6]: 1 µg/mL (≈ 2.77 µM); MIC50 [7]: 2 µg/mL (≈ 5.53 µM); MIC90 [7]: 2 µg/mL (≈ 5.53 µM); MIC50 [8]: 4 µg/mL (≈ 11.1 µM); MIC90 [8]: > 16 µg/mL; MIC50 [9]: 0.5 µg/mL (≈ 1.38 µM); MIC90 [9]: 1 µg/mL (≈ 2.77 µM)
Neomycin | 5/10 | 0/20 | 0/10 | – | 0/5 | 8/10 | 0.06 to 4 µg/mL | 10/10 | – | 0/10 | 0/20 | 0.5 to 2 µg/mL | 10/10 | – | – | – | – | – | – | – | MIC 50% [1]: 1 µg/mL; MIC 90% [1]: >32 µg/mL; MIC 50% [2]: >32 µg/mL; MIC 90% [2]: >32 µg/mL; MIC 50% ([3]; 10 clinical isolates): >32 µg/mL; MIC 90% ([3]; 10 clinical isolates): >32 µg/mL; MIC 50% [5]: 0.25 µg/mL; MIC 90% [5]: 16 µg/mL; MIC 50% [6]: 0.25 µg/mL; MIC 90% [6]: 1 µg/mL; MIC 50% [7]: >32 µg/mL; MIC 90% [7]: >32 µg/mL; MIC 50% [8]: >32 µg/mL; MIC 90% [8]: >32 µg/mL; MIC 50% [9]: 1 µg/mL; MIC 90% [9]: 2 µg/mL
Penicillin | – | – | – | – | – | – | – | – | – | – | – | – | – | – | – | – | – | – | – | – | MIC ([3]; single isolate, serotype 23(F)): 2 µg/mL; MIC ([7]; serotype 3): 0.015 µg/mL; MIC ([7]; serotype 4): 0.015 µg/mL; MIC ([7]; serotype 7F): 0.015 µg/mL; MIC ([7]; serotype 8): 0.015 µg/mL; MIC ([7]; serotype 9(V)): 0.03 µg/mL; MIC ([7]; serotype 11(A)): 0.06 µg/mL; MIC ([7]; serotype 19F): 0.03 µg/mL; MIC ([7]; serotype 23(F)): 0.015 µg/mL
CN(C)[C@@H]1C(O)=C(C(N)=O)C(=O)[C@@]2(O)C(O)=C3C(=O)c4c(O)cccc4[C@@](C)(O)[C@H]3[C@H](O)[C@@H]12 [Oxytetracycline] | 10/10 | 10/20 | 1/10 | 0.25 to 16 µg/mL | 2/5 | 8/10 | – | 9/10 | 1 to 8 µg/mL | 8/10 | 6/20 | 0.25 to 32 µg/mL | 8/10 | 0.25 µg/mL (≈ 0.543 µM) | 0.25 µg/mL (≈ 0.543 µM) | 4 µg/mL (≈ 8.69 µM) | > 32 µg/mL | 32 µg/mL (≈ 69.5 µM) | > 32 µg/mL | 1 µg/mL (≈ 2.17 µM) | MIC Range [1]: 0.125 to 0.25 µg/mL; MIC90 [5]: > 32 µg/mL; MIC50 [6]: 0.25 µg/mL (≈ 0.543 µM); MIC90 [6]: 1 µg/mL (≈ 2.17 µM); MIC50 [7]: 1 µg/mL (≈ 2.17 µM); MIC90 [7]: 8 µg/mL (≈ 17.4 µM); MIC50 [8]: 16 µg/mL (≈ 34.7 µM); MIC90 [8]: 32 µg/mL (≈ 69.5 µM); MIC50 [9]: 0.25 µg/mL (≈ 0.543 µM); MIC90 [9]: 32 µg/mL (≈ 69.5 µM)
NC[C@H]1O[C@H](O[C@H]2[C@H](O)[C@@H](O[C@H]3O[C@H](CO)[C@@H](O)[C@H](N)[C@H]3O)[C@H](N)C[C@@H]2N)[C@H](N)C[C@@H]1O [Tobramycin] | 6/10 | 1/20 | 0/10 | – | 0/5 | 5/10 | 0.06 to 4 µg/mL | 10/10 | 16 to 32 µg/mL | 0/10 | 0/20 | 0.5 to 1 µg/mL | 10/10 | 1 µg/mL (≈ 2.14 µM) | > 32 µg/mL | 16 µg/mL (≈ 34.2 µM) | 32 µg/mL (≈ 68.4 µM) | 32 µg/mL (≈ 68.4 µM) | > 32 µg/mL | 0.06 µg/mL (≈ 0.128 µM) | MIC Range [2]: 4 to 32 µg/mL; MIC90 [5]: > 32 µg/mL; MIC50 [6]: 0.06 µg/mL (≈ 0.128 µM); MIC90 [6]: 4 µg/mL (≈ 8.56 µM); MIC50 [7]: 16 µg/mL (≈ 34.2 µM); MIC90 [7]: 32 µg/mL (≈ 68.4 µM); MIC50 [8]: 16 µg/mL (≈ 34.2 µM); MIC90 [8]: > 32 µg/mL; MIC50 [9]: 0.5 µg/mL (≈ 1.07 µM); MIC90 [9]: 0.5 µg/mL (≈ 1.07 µM)
